Biological target: T1, T1R1 and T1R3 with G protein α-subunits (α15 and α16/Z chimeric protein) (Mus musculus, UniProt Q925D8+Q99PG6, I706N)
T1 construct: expressed in transfected cells; host or cells: 293 cells, RCB 1637 (human embryonic kidney)
T1 sequence (Q99PG6 20-842 L120P/N244D/D281A/N309Y/P311T/S314P/H418Y): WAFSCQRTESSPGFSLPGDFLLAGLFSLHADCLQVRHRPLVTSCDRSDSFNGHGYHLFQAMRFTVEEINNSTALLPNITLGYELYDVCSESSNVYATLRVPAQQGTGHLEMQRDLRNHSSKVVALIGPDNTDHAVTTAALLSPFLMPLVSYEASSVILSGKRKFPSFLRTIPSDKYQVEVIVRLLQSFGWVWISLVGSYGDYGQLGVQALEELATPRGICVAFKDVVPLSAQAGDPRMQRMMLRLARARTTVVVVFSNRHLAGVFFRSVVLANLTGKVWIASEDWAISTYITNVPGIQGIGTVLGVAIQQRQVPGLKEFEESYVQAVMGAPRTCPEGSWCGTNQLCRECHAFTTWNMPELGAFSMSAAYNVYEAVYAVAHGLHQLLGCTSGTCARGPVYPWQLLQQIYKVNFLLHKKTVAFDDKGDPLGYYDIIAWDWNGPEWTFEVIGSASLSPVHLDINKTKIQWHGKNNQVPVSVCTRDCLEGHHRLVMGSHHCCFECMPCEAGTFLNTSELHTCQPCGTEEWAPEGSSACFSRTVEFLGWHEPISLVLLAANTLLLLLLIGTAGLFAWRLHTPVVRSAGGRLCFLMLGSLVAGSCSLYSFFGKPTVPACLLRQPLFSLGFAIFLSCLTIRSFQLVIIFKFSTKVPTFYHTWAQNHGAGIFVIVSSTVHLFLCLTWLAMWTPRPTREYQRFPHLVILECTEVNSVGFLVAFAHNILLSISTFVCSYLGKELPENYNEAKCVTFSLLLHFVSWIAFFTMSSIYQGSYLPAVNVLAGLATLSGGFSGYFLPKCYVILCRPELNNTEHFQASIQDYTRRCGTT
T1 sequence (Q925D8 21-858 I706N): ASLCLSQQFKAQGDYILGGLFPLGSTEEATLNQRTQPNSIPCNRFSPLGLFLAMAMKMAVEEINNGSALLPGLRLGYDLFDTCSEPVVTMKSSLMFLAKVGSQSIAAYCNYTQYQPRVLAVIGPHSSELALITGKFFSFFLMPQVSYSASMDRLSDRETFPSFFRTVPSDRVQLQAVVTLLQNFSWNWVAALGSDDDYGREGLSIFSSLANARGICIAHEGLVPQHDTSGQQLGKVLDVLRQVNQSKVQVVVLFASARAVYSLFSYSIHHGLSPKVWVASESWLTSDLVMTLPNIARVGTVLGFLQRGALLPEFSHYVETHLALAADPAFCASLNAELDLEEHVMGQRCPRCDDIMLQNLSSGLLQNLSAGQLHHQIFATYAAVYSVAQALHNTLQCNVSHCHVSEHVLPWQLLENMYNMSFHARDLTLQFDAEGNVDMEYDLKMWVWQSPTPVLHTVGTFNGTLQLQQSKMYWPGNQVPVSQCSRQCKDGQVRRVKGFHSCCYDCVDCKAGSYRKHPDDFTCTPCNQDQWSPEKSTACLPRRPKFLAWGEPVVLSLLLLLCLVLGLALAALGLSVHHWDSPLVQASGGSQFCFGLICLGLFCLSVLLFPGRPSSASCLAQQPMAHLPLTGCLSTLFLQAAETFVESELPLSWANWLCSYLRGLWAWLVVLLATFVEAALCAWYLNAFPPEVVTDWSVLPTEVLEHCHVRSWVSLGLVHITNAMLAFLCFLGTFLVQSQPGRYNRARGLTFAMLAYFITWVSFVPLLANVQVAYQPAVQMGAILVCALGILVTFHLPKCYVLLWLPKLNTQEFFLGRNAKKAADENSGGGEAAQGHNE
Assay: Intracellular calcium ion assay, 293 cells coexpressing G protein α-subunits, T1R1 and T1R3
Type: cell-based
Settings: 293 cells: T1R1 + T1R3 + G protein α-subunits; 0.67 ml of 1 M saccharide solution added to 2 ml cell suspension; FLUO-4 AM
Experimental: The coexpression vector for the G protein α-subunit α15 and the G protein α16/Z chimeric protein (hereinafter designated as “G protein α-subunits”) obtained in Example 1-3 was gene transferred to 293 cells, RCB 1637, a human embryonic kidney cell line, available from the Riken Bioresource Center, Ibaraki, Japan, by conventional lipofection. The gene transferred cells were suspended in Dulbecco's Modified Eagle's Medium (D-MEM) supplemented with 1 mg/L of “PUROMYCIN”, a trade mane of puromycin commercialized by Edge Biosystems, MD, USA, and 10% (v/v) of fetal calf serum to give a cell density of 2×10^6 cells/ml and cultured in a plastic petri dish for cell culture. […]
The captioned reactivity test was conducted according to a conventional intracellular calcium ion assay: 293 Cells prepared in Example 3, capable of coexpressing the G protein α-subunits and the sweet taste receptor(s), were cultured in a plastic petri dish for cell culture until reaching its confluent phase. […] Two milliliters of the resultant cell suspension was injected into a glass cuvette, commercialized by Hitachi, Ltd., Tokyo, Japan, and analyzed on “HITACHI 650-40”, a fluorescence spectrophotometer commercialized by Hitachi, Ltd., Tokyo, Japan. […]

Row | SMILES | Influx of calcium ion
1 | OC[C@H]1O[C@@](CO)(O[C@H]2O[C@H](CO)[C@@H](O)[C@H](O)[C@H]2O)[C@@H](O)[C@@H]1O [Sucrose, reference compound] | Negative
2 | OC[C@H]1O[C@H](O[C@H]2O[C@H](CO)[C@@H](O)[C@H](O)[C@H]2O)[C@H](O)[C@@H](O)[C@@H]1O [Trehalose] | Positive
